# Assay results published in patent publication US20140148336A1, “METHODS OF CONTROLLING FUNGAL PATHOGENS USING POLYENE FUNGICIDES” (priority 2012, published 2014).
# What was measured:
# soybean = test: Seed treatment in uninfested soil, germination and potential phytotoxicity (Example 5); format: in vivo; conditions: for Root Vigor Average (Uninfested Soil): rating 0-4 (4 = healthy taproot)
# From the text: (§1) The plants were allowed to grow for 18-21 days. The plants were then gently removed and assessed for root rot symptoms, with a rating of 1=0% infection on taproot and lateral roots, a 2=<25% infection, a 3=25-50% infection, a 4=51-90% infection, and a 5=>90% infection. Root vigor was rated such that a rating of 4=healthy taproot and many lateral roots, a 3=fewer lateral roots and some stunting, a 2=fewer or stringy lateral roots and more stunting, 1=thin tap root and only a few lateral roots, and a 0=thin and stunted taproot with 0-3 lateral roots.
# (§2) Using a protocol similar to Example 2, natamycin treated seeds were tested at 50 μg, 25 μg, 10 μg, 5 μg, and 1 μg natamycin per seed. Briefly, seeds were coated with a natamycin slurry and then allowed to air dry. Ten samples of each were planted into infested soil, while five samples of each were planted in uninfested soil to compare germination and potential phytotoxicity.
# SDS spores = test: Comparison of inoculum rates on treated seeds for control of SDS in planta (Example 6); format: in vivo, Fusarium virguliforme; conditions: for Root Vigor Average: rating 0-4 (4 = healthy taproot); for Root Rot Average: rating 1-5 (5 = >90% infection)
# From the text: as §1
# Using a protocol similar to that described in Example 5, natamycin at concentrations of 50 μg, 25 μg, 10 μg, 5 μg, and 1 μg was assessed for the treatment of SDS.
# […] Inoculum rates of 25 g/L inoculum and 8 g/L inoculum were compared, corresponding to approximately 10^5 SDS spores per container and 10^4-10^5 SDS spores per container, respectively. Assessment occurred after 18 and 22 days.
# F. virguliforme = test: Agar diffusion assay, zones of inhibition on F. virguliforme lawn plates (Example 1); format: cell-based, Fusarium virguliforme
# Description: A PDA plate containing two week old F. virguliforme was flooded with sterile distilled water and scraped with an L-rod to release spores. The spore solution was poured through about four layers of cheese cloth into a 50 mL conical tube. Spores were quantified using a hemacytometer, then diluted to 1×10^5 spores/mL. (1×10^4 spores were spread on plates.) To make F. virguliforme lawn plates, 100 μL of the spore suspension was spread onto commercial PDA plates. Wells were made for the F. virguliforme lawn plates using straw-plungers.
# Natamycin stock was diluted in sterile distilled water to concentrations of 500 ppm, 250 ppm, 100 ppm, 50 ppm, 25 ppm, 12.5 ppm, 6.25 ppm, 3.13 ppm, 1.56 ppm, 0.78 ppm, and 0.4 ppm. 100 μL of each dilution was placed in a well on the lawn plates. Control plates consisted of a 1000 ppm plate, a water control, and a 70% ethanol (EtOH) control.
# […] […] Dilutions lower than 12.5 ppm had no effect.
# SDS = test: Seed treatment for control of SDS in planta, infested soil (Example 5); format: in vivo, Fusarium virguliforme; conditions: for Root Rot Average: 25 g inoculum per liter, rating 1-5 (5 = >90% infection), IC 3.3; for Root Vigor Average Infested Soil: rating 0-4 (4 = healthy taproot), IC 2.5
# From the text: as §1, §2
# Inoculum rates in this experiment were 25 g inoculum per liter sand/soil. This is equivalent to 8.5×10^4 spores per cone.
# Plants treated with 50 μg/seed of natamycin had the most root rot, while plants treated with 1 μg/seed of natamycin had the least root rot. […] In the tables below, “IC Natamycin 25 ppm” refers to an infested control that was treated with natamcyin as a drench application at 25 ppm two days after planting untreated seed into infested soil.
# [1] = drench 25 ppm two days after planting untreated seed into infested soil
structure (smiles),measurement,setting,value
"C[C@@H]1C/C=C/C=C/C=C/C=C/[C@H](O[C@@H]2O[C@H](C)[C@@H](O)[C@H](N)[C@@H]2O)C[C@@H]2O[C@](O)(C[C@@H](O)C[C@H]3O[C@@H]3/C=C/C(=O)O1)C[C@H](O)[C@H]2C(=O)O [Natamycin, natamycin]",germination of plants,"soybean; all plants, seed treatment at all natamycin concentrations (50, 25, 10, 5, 1 μg per seed), un-infested (clean) soil",germinated
same,Root Vigor Average (Uninfested Soil),soybean; seed treatment 1 μg/seed,3.5
same,Root Vigor Average (Uninfested Soil),soybean; seed treatment 5 μg/seed,3.9
same,Root Vigor Average (Uninfested Soil),soybean; seed treatment 10 μg/seed,3.6
same,Root Vigor Average (Uninfested Soil),soybean; seed treatment 25 μg/seed,3.3
same,Root Vigor Average (Uninfested Soil),soybean; seed treatment 50 μg/seed,3.8
same,phytotoxicity to seeds,"soybean; seed treatment at all concentrations (50, 25, 10, 5, 1 μg per seed), un-infested soil",not phytotoxic
same,decrease of root rot symptoms,"SDS spores; both seed treatment experiments, both SDS inoculum rates",no consistent decrease
same,Root Vigor Average,"SDS spores; drench 25 ppm, Inoc Rate 8, IC 2.3",1.9
same,Root Rot Average,"SDS spores; drench 25 ppm, Inoc Rate 8, IC 2.9",2.6
same,Root Vigor Average,"SDS spores; drench 25 ppm, Inoc Rate 25, IC 1.6",2.3
same,Root Rot Average,"SDS spores; drench 25 ppm, Inoc Rate 25, IC 3.9",4.1
same,Root Vigor Average,"SDS spores; seed treatment 1 μg/seed, Inoc Rate 8, IC 2.3",1.9
same,Root Rot Average,"SDS spores; seed treatment 1 μg/seed, Inoc Rate 8, IC 2.9",2.9
same,Root Vigor Average,"SDS spores; seed treatment 1 μg/seed, Inoc Rate 25, IC 1.6",2.1
same,Root Rot Average,"SDS spores; seed treatment 1 μg/seed, Inoc Rate 25, IC 3.9",4.1
same,Root Vigor Average,"SDS spores; seed treatment 5 μg/seed, Inoc Rate 8, IC 2.3",1.4
same,Root Rot Average,"SDS spores; seed treatment 5 μg/seed, Inoc Rate 8, IC 2.9",2.4
same,Root Vigor Average,"SDS spores; seed treatment 5 μg/seed, Inoc Rate 25, IC 1.6",2.6
same,Root Rot Average,"SDS spores; seed treatment 5 μg/seed, Inoc Rate 25, IC 3.9",4.1
same,Root Vigor Average,"SDS spores; seed treatment 10 μg/seed, Inoc Rate 8, IC 2.3",2.2
same,Root Rot Average,"SDS spores; seed treatment 10 μg/seed, Inoc Rate 8, IC 2.9",2.4
same,Root Vigor Average,"SDS spores; seed treatment 10 μg/seed, Inoc Rate 25, IC 1.6",1.9
same,Root Rot Average,"SDS spores; seed treatment 10 μg/seed, Inoc Rate 25, IC 3.9",4.1
same,Root Vigor Average,"SDS spores; seed treatment 25 μg/seed, Inoc Rate 8, IC 2.3",1.8
same,Root Rot Average,"SDS spores; seed treatment 25 μg/seed, Inoc Rate 8, IC 2.9",2.3
same,Root Vigor Average,"SDS spores; seed treatment 25 μg/seed, Inoc Rate 25, IC 1.6",2.2
same,Root Rot Average,"SDS spores; seed treatment 25 μg/seed, Inoc Rate 25, IC 3.9",3.6
same,Root Vigor Average,"SDS spores; seed treatment 50 μg/seed, Inoc Rate 8, IC 2.3",1.9
same,Root Rot Average,"SDS spores; seed treatment 50 μg/seed, Inoc Rate 8, IC 2.9",2.8
same,Root Vigor Average,"SDS spores; seed treatment 50 μg/seed, Inoc Rate 25, IC 1.6",2.1
same,Root Rot Average,"SDS spores; seed treatment 50 μg/seed, Inoc Rate 25, IC 3.9",3.8
same,"control of F. virguliforme (zones of inhibition), drop off","F. virguliforme; 12.5 ppm, 100 μL per well, after three days",noticeably
same,control of F. virguliforme (zones of inhibition),"F. virguliforme; 12.5 ppm, after seven days",very limited activity
same,Fusarium growth around plates,"F. virguliforme; 25 ppm and 12.5 ppm plates, one day later (after the three-day reading)",more Fusarium grew
same,control of F. virguliforme (zones of inhibition),"F. virguliforme; 50 ppm, 100 μL per well, after three days",started to drop off slightly
same,control of F. virguliforme (zones of inhibition),"F. virguliforme; 50 ppm, after seven days",started falling off
same,control of F. virguliforme (zones of inhibition),"F. virguliforme; 100 ppm, 100 μL per well, after three days",Substantial control
same,control of F. virguliforme (zones of inhibition),"F. virguliforme; 250 ppm, 100 μL per well, after three days",Substantial control
same,control of F. virguliforme (zones of inhibition),"F. virguliforme; 500 ppm, 100 μL per well, after three days",Substantial control
same,control of F. virguliforme (zones of inhibition),"F. virguliforme; 1000 ppm plate, after three days",almost completely controlled
same,effect on F. virguliforme (zones of inhibition),F. virguliforme; dilutions lower than 12.5 ppm,no effect
same,Root Rot Average,SDS; [1],1.8
same,Root Vigor Average Infested Soil,SDS; [1],2.3
same,Root Rot Average,"SDS; seed treatment 1 μg/seed, infested soil",3
same,Root Vigor Average Infested Soil,SDS; seed treatment 1 μg/seed,1.9
same,Root Rot Average,"SDS; seed treatment 5 μg/seed, infested soil",3.6
same,Root Vigor Average Infested Soil,SDS; seed treatment 5 μg/seed,2.4
same,Root Rot Average,"SDS; seed treatment 10 μg/seed, infested soil",4
same,Root Vigor Average Infested Soil,SDS; seed treatment 10 μg/seed,1.8
same,Root Rot Average,"SDS; seed treatment 25 μg/seed, infested soil",4.7
same,Root Vigor Average Infested Soil,SDS; seed treatment 25 μg/seed,1.1
same,Root Rot Average,"SDS; seed treatment 50 μg/seed, infested soil",4.6
same,Root Vigor Average Infested Soil,SDS; seed treatment 50 μg/seed,1.6
